From patent US20110281814A1, “METHODS AND COMPOSITIONS FOR TREATING BREAST CANCER” (Genzyme Corporation, priority 2009, published 2011)
Where two headings read alike, the source gives them in different places.

How the values were obtained:
[1] = disclosed in PCT Pub. No. WO 00/045814; cited from earlier work
[2] = system: SDF-1α/CXCL12-mediated transactivation of HER2/neu; conditions: MDA-MB-361 breast cancer cells, in vitro; Cabioglu et al. 2005; cited from earlier work
established 4T1 tumors = system: established 4T1 tumors
From the text: The 4T1 cell line (available from the […], Manassas, Va.) was derived from a spontaneously arising BALB/c mammary tumor and is commonly used as a syngeneic mouse model of metastatic breast cancer. When introduced orthotopically, the 4T1 line grows rapidly at the primary site and forms metastases in lungs, liver, bone and brain over a period of 3-6 weeks. When introduced intravenously or arterially, metastases are apparent in the same organs after 1-2 weeks. The rapid and efficient metastasis to organs affected in human breast cancer makes the 4T1 model an excellent mouse model for the study of metastatic progression of breast cancer in humans.
Three groups of 6- to 8-week-old SCID mice (6 animals each) were injected subcutaneously with 2×10^5 4T1 cells. At the start of dosing (about 14 days post-injection), the tumor volume was approximately 100 mm^3.
The size of the tumors was measured approximately every four days, beginning on day 10 post-injection. Animals were euthanized when the tumor volume reached approximately 1000 mm^3. […] The time course of the average tumor volume is plotted for each experimental group in FIG. 4A.

murine 4T1 cells = conditions: Smith et al. 2004, cited from earlier work
MDA-MB-231 tumors [3] = conditions: for potentiation of the effect of doxorubicin on tumor growth: three weeks from day 28, vs doxorubicin alone, FIG. 5
Description: Four groups of 6- to 8-week-old SCID mice (6 animals each) were injected subcutaneously with 1×10^6 MDA-MB-231 cells. At the start of dosing (about 28 days post-injection), the tumor volume was approximately 100 mm^3. Beginning approximately 28 days after the injection, Groups 2-4 were administered intraperitoneal injections of doxorubicin once a week (Monday) for three weeks at 2 mg/kg body weight.
The size of the tumors was measured approximately every six days, beginning on day 21 post-injection. Animals were euthanized when the tumor volume reached approximately 1000 mm^3. The time course of the average tumor volume is plotted for each experimental group in FIG. 5.

MDA-MB-231 tumors [4] = system: MDA-MB-231 tumors
Description: Three groups of 6- to 8-week-old SCID mice (6 animals each) were injected subcutaneously with 2×10^6 MDA-MB-231 cells. At the start of dosing (about 14 days post-injection), the tumor volume was approximately 100 mm^3. Beginning approximately 14 days after the injection, Groups 2 and 3 were administered intraperitoneal injections of doxorubicin once a week (Monday) for the duration of the study at 1 mg/kg body weight.
The size of the tumors was measured approximately every three days, beginning on day 21 post-injection. Animals were euthanized when the tumor volume reached approximately 1000 mm^3. The time course of the average tumor volume is plotted for each experimental group in FIG. 6A.

[5] = system: MDA-MB-231 cells admixed with MSC cells; conditions: presence of MSC cells, FIG. 2A
Description: (§1) Six groups of 6- to 8-week-old SCID mice (6 animals each) were injected subcutaneously with 1×10^6 MDA-MB-231 cells. Groups 4-6 were further injected with 1×10^6 MSC cells admixed with the MDA-MB-231 cells.
(§2) The size of the tumors was measured approximately every five days, beginning on day 15 post-injection. Animals were euthanized when the tumor volume reached approximately 1000 mm^3. The time course of the average tumor volume is plotted for each experimental group in FIGS. 2A and 2B.

MDA-MB-231 cells = conditions: AMD3465 5 or 10 mg/kg i.p. MWF from 7 days post-injection; absence of MSC cells; FIG. 2B
Description: as §1, §2

[6] = system: established MDA-MB-231 tumors; conditions: for rate of tumor growth: FIG. 3A; for mean survival (Kaplan-Meier): FIG. 3B
Description: Four groups of 6- to 8-week-old SCID mice (8 animals each) were injected subcutaneously with 1×10^6 MDA-MB-231 cells. At the start of dosing (about 21 days post-injection), the tumor volume was approximately 100 mm^3.
The size of the tumors was measured approximately every five days, beginning on day 21 post-injection. Animals were euthanized when the tumor volume reached approximately 1000 mm^3. The time course of the average tumor volume is plotted for each experimental group in FIG. 3A.

[7] = system: MDA-MB-231 human breast cancer cells admixed with human mesenchymal stem (MSC) cells; experiment: Efficacy of AMD3465 in MDA-MB-231+MSC breast cancer model (Example 1); format: in vivo, SCID mice; conditions: vs PBS control, FIG. 1
Description: The MSC cells provide stromal support to the MDA-MB-231 cells and enhance tumor growth and metastasis via SDF-1α/CXCL12 and RANTES pathways.
Group 2 was given intraperitoneal injections of anti-human SDF-1α/CXCL12 monoclonal antibody three times a week (Monday, Wednesday and Friday) for six weeks at 100 μg per animal.

breast cancer = conditions: mouse models of breast cancer; literature; cited from earlier work
[8] = AMD3100 1.25 mg/kg s.c. MWF for two weeks, FIG. 4A
[9] = AMD3100 […] + doxorubicin 2 mg/kg
[10] = AMD3100 […] + doxorubicin 1 mg/kg

c1cc(CN2CCCNCCNCCCNCC2)ccc1CN1CCCNCCNCCCNCC1 [AMD3100]
white blood cell count [1]: increasing the white blood cell count
SDF-1α/CXCL12-mediated transactivation of HER2/neu [2]: inhibit
leveling off of tumor growth (established 4T1 tumors; [8]): largely leveled off by day 26 post-injection
onset of tumor growth (established 4T1 tumors; [8]): delayed by approximately one week
rate of tumor growth (established 4T1 tumors; [8]): significantly decreased the rate of tumor growth
mean survival (Kaplan-Meier) (established 4T1 tumors; AMD3100 1.25 mg/kg, FIG. 4B): increased the mean survival
growth onset of 4T1 cells in the lung (murine 4T1 cells): significantly delayed the growth onset
overall survival (murine 4T1 cells; mice with experimental lung metastases): did not appear to improve overall survival
potentiation of the effect of doxorubicin on tumor growth (MDA-MB-231 tumors [3]; AMD3100 1.25 mg/kg s.c. MWF + doxorubicin 2 mg/kg i.p. weekly): not at 1.25 mg/kg
leveling off of tumor growth (MDA-MB-231 tumors [3]; [9]): leveled off by day 92 post-injection
onset of tumor growth (MDA-MB-231 tumors [3]; [9]): delayed by several weeks
potentiation of the effect of doxorubicin on tumor growth (MDA-MB-231 tumors [3]; AMD3100 […] s.c. MWF + doxorubicin 2 mg/kg i.p. weekly): potentiated the effect of 2 mg/kg doxorubicin on the tumor growth
leveling off of tumor growth (MDA-MB-231 tumors [4]; [10]): leveled off by day 50 post-injection
onset of tumor growth (MDA-MB-231 tumors [4]; [10]): delayed by about two weeks
rate of tumor growth compared to doxorubicin alone (MDA-MB-231 tumors [4]; [10]): significantly (p=0.04) decreased
mean survival (Kaplan-Meier) compared to doxorubicin alone (MDA-MB-231 tumors [4]; AMD3100 […] + doxorubicin 1 mg/kg, FIG. 6B): significantly (p=0.07) increased the mean survival
potentiation of the effect of doxorubicin on tumor growth (MDA-MB-231 tumors [4]; AMD3100 […] s.c. MWF + doxorubicin 1 mg/kg i.p. weekly, duration of study from day 14, FIG. 6A): significantly potentiated the effect of 1 mg/kg doxorubicin on the tumor growth

c1ccc(CNCc2ccc(CN3CCCNCCNCCCNCC3)cc2)nc1 [AMD3465]
rate of tumor growth ([5]; AMD3465 5 mg/kg i.p. MWF from 7 days post-injection): significantly (p=0.024) decreased the rate of tumor growth
rate of tumor growth ([5]; AMD3465 10 mg/kg i.p. MWF from 7 days post-injection): not at 10 mg/kg
rate of tumor growth (MDA-MB-231 cells): no statistically significant effect
rate of tumor growth ([6]; AMD3465 5 mg/kg i.p. MWF from about 21 days post-injection): not at 5 or 10 mg/kg
mean survival (Kaplan-Meier) ([6]; AMD3465 5 mg/kg): not at 5 or 10 mg/kg
rate of tumor growth ([6]; AMD3465 10 mg/kg i.p. MWF from about 21 days post-injection): not at 5 or 10 mg/kg
mean survival (Kaplan-Meier) ([6]; AMD3465 10 mg/kg): not at 5 or 10 mg/kg
rate of tumor growth ([7]; AMD3465 5 mg/kg i.p. MWF for six weeks from 48 hours post-injection): significantly (p=0.07) decreased the rate of tumor growth
rate of tumor growth ([7]; AMD3465 10 mg/kg i.p. MWF for six weeks from 48 hours post-injection): not at 10 mg/kg

TN14003
metastasis (breast cancer): reduce metastasis
primary tumor growth (breast cancer): reduce primary tumor growth
